Like-named read-outs stand apart in the source and are kept apart here.
Assays:
[1] = tested on: A/WSN/33 (H1N1) virus with NA H274Y resistance mutation; assay type: cell-based, Influenza A/WSN/33 (H1N1)
PR8 = assay: microbe, parasite or virus in culture; assay type: cell-based, Influenza A/PR/8/34 (PR8) H1N1 virus

Compound	potency and efficacy [1]	IC50 (PR8; read-out: IC50 after serial passages) [nM]	IC50 (PR8; read-out: IC50 at start of passaging) [nM]	IC50 [1] [nM]	increase of IC50 (PR8) [fold]	IC50 (PR8; Influenza A virus, PR8, read-out: IC50 after serial passages) [nM]	IC50 (PR8; Influenza A virus, PR8, read-out: starting IC50) [nM]
TACTtactgacaGCC [LNA9]	picomolar activity	0.016	0.018	–	–	–	–
CCOC(=O)C1=C[C@@H](OC(CC)CC)[C@H](NC(C)=O)[C@@H](N)C1 [Oseltamivir]	–	–	–	53000	1000	50000	41

— patent US12522827B2 (priority 2021, dated 2026)
